Results: PubChem BioAssay (NCI)
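How tested: cells in 96-well plates exposed to compound for 48 hours at five concentrations. GI50 = concentration required for 50% inhibition of growth. The concentration for full growth arrest is given as TGI.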

What was measured:
Test in all cases: NCI tumour cell line growth inhibition, 48 h
PC-3 prostate = system: PC-3 prostate
LOX IMVI melanoma = system: LOX IMVI melanoma
NCI/ADR-RES ovarian = system: NCI/ADR-RES ovarian
HOP-62 NSCLC = system: HOP-62 NSCLC
MDA-MB-231 breast = system: MDA-MB-231 breast
CCRF-CEM leukemia = system: CCRF-CEM leukemia
MALME-3M melanoma = system: MALME-3M melanoma
MOLT-4 leukemia = system: MOLT-4 leukemia
BT-549 breast = system: BT-549 breast
MDA-MB-435 = system: MDA-MB-435

Row | Structure (SMILES) | TGI (PC-3 prostate) [µM] | TGI (LOX IMVI melanoma) [µM] | TGI (NCI/ADR-RES ovarian) [µM] | TGI (HOP-62 NSCLC) [µM] | TGI (MDA-MB-231 breast) [µM] | TGI (CCRF-CEM leukemia) [µM] | TGI (MALME-3M melanoma) [µM] | TGI (MOLT-4 leukemia) [µM] | TGI (BT-549 breast) [µM] | TGI (MDA-MB-435) [µM] | GI50 (PC-3 prostate) [µM] | GI50 (LOX IMVI melanoma) [µM] | GI50 (NCI/ADR-RES ovarian) [µM] | GI50 (HOP-62 NSCLC) [µM] | GI50 (MDA-MB-231 breast) [µM] | GI50 (CCRF-CEM leukemia) [µM] | GI50 (MALME-3M melanoma) [µM] | GI50 (MOLT-4 leukemia) [µM] | GI50 (BT-549 breast) [µM] | GI50 (MDA-MB-435) [µM]
1 | COc1cccc2c1C(=O)OC2c1cccc2ccccc12 (stereo not given) | > 100 | > 100 | > 100 | 62.4 | > 100 | > 100 | > 100 | > 100 | > 100 | > 100 | – | – | – | – | – | – | – | – | – | –
2 | C#COc1cccc(Nc2ncnc3cc(NC(=O)[C@H](C)Cl)ccc23)c1 | > 62.5 | > 62.5 | > 62.5 | > 62.5 | > 62.5 | > 62.5 | > 62.5 | > 62.5 | > 62.5 | 4.3 | 3.23 | 2.54 | 2.4 | 6.35 | 3.75 | 2.41 | 4.07 | 2.42 | 3.22 | 1.4
3 | Cc1cn(-c2ccc(S(C)(=O)=O)cc2)c(-c2ccc(Cl)cc2)n1 | > 100 | > 100 | > 100 | > 100 | > 100 | > 100 | > 100 | > 100 | > 100 | > 100 | > 100 | > 100 | > 100 | > 100 | > 100 | > 100 | > 100 | > 100 | > 100 | > 100
4 | COc1cc(NCCN=C(N)NC(N)=NC(C)C)c2ncccc2c1 | > 100 | 94.8 | > 100 | > 100 | 21.4 | > 100 | 6.71 | > 100 | 29.4 | 41.9 | 8.96 | 20.1 | > 100 | 28.5 | 3.17 | 16.4 | 1.6 | 25 | 9.66 | 18.6
5 | COc1ccc(N(/C=C/C(=O)C(F)(F)F)CC(=O)c2ccc(Cl)cc2)cc1 | 32.8 | 28.8 | 53.1 | 35.8 | 24.4 | 38.1 | 37.6 | 55.5 | 65.3 | 22 | 14.2 | 14.3 | 15.7 | 16.6 | 10.4 | 12.2 | 16 | 15.4 | 20.6 | 5.68
6 | c1ccc([As]=[As]c2ccccc2)cc1 (stereo not given) | 2.64 | 0.653 | 6.32 | 3.33 | 2.21 | 1.62 | 3.23 | 4.17 | 2.87 | 2.72 | 1.27 | 0.117 | 2.16 | 1.78 | 0.88 | 0.234 | 1.29 | 1.01 | 1.23 | 1.27
7 | CCOC(=O)c1ccc2c(c1)[n+](=O)c(C(C)=O)c(C(F)(F)F)n2[O-] | 2.38 | 3.12 | 5.98 | 3.54 | 3.62 | 4.59 | 2.83 | 3.97 | 3.21 | 3.21 | 0.885 | 1.47 | 1.89 | 1.66 | 1.75 | 1.68 | 1.4 | 1.31 | 1.54 | 1.61
